Consider 49 compounds from patent US8686143B2, “Compounds useful as inhibitors of Janus kinases” (Vertex Pharmaceuticals Incorporated, priority 2007, dated 2014).

This experiment addresses T1, JAK3 (Homo sapiens, UniProt P52333).
T1 sequence (P52333 1-1124): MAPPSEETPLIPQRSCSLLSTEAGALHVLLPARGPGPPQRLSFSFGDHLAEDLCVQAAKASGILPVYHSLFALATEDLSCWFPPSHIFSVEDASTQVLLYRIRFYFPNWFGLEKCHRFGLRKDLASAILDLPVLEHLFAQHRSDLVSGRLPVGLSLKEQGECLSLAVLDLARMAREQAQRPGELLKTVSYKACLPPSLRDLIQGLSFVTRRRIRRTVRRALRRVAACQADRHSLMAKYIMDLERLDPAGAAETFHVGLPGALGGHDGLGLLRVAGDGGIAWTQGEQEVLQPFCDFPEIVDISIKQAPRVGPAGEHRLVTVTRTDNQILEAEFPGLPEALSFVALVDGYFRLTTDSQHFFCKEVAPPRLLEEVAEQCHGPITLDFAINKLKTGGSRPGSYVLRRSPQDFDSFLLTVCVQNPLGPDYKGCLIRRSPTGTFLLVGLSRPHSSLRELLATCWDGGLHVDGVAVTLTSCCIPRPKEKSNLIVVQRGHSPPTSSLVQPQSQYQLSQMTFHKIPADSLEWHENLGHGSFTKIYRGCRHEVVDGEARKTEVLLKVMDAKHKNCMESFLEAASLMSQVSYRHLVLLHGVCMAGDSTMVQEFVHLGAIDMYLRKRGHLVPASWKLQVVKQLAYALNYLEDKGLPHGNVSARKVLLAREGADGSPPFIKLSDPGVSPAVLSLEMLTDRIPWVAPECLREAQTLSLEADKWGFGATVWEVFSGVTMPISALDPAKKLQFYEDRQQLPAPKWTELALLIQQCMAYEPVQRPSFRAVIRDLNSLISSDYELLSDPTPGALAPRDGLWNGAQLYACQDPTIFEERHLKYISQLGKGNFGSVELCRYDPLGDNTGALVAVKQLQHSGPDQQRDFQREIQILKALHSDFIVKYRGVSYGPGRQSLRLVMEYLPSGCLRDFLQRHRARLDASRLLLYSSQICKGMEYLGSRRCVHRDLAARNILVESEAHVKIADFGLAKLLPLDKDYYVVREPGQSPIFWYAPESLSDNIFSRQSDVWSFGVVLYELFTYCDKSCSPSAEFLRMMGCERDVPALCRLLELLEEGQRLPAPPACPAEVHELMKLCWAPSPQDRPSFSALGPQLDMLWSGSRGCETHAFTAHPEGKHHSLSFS
Briefly: JAK3 Inhibition Assay (33P incorporation into poly(Glu)4Tyr). Particulars: for Ki: 1 nM JAK3, 5 μM ATP, 1 μM poly(Glu)4Tyr, 25° C. It counts as biochemical. The procedure:
Compounds were screened for their ability to inhibit JAK3 using the assay shown below. Reactions were carried out in a kinase buffer containing 100 mM HEPES (pH 7.4), 1 mM DTT, 10 mM MgCl2, 25 mM NaCl, and 0.01% BSA. Substrate concentrations in the assay were 5 μM ATP (200 uCi/μmole ATP) and 1 μM poly(Glu)4Tyr. Reactions were carried out at 25° C. and 1 nM JAK3.
To each well of a 96 well polycarbonate plate was added 1.5 μl of a candidate JAK3 inhibitor along with 50 μlof kinase buffer containing 2 μM poly(Glu)4Tyr and 10 μM ATP. This was then mixed and 50 μl of kinase buffer containing 2 nM JAK3 enzyme was added to start the reaction. After 20 minutes at room temperature (25° C.), the reaction was stopped with 50 μl of 20% trichloroacetic acid (TCA) that also contained 0.4 mM ATP. The entire contents of each well were then transferred to a 96 well glass fiber filter plate using a TomTek Cell Harvester. After washing, 60 μl of scintillation fluid was added and ^33P incorporation detected on a Perkin Elmer TopCount.

`CC(C)Nc1nc(N)n(-c2ncc(F)c(N3CCC[C@@H]3C(=O)NCC(F)(F)F)n2)n1` [Compound 53]: the “inhibition of JAK3 at concentrations of 5.0 μM” value (shortened to “inhibition of JAK3 … of 5.0 μM”) is “did not inhibit”.

In turn, `CN(C)C(=O)c1cc(-c2ncc(F)c(N3CCC[C@@H]3C(=O)NCC(F)(F)F)n2)c[nH]1` [Compound 129] gave an inhibition constant Ki of 10 to 50 µM. For `C[C@H](Nc1nc(-c2ccncc2)ncc1F)C(=O)NCC(F)(F)F` [Compound 3], the “inhibition of JAK3 at concentrations of 50 μM” value (from here on “inhibition of JAK3 … of 50 μM”) is “did not inhibit”. As to `O=C(NCC(F)(F)F)[C@H]1CCCN1c1nc(-c2ccc3c(c2)OCCO3)ncc1F` [Compound 153], the “inhibition of JAK3 … of 50 μM” value was “did not inhibit”. In turn, `CC(C)[C@@H](Nc1nc(-c2c[nH]c(C(=O)NC3CC3)c2)ncc1F)C(=O)NCC(F)(F)F` [Compound 126] had a Ki of 10 to 50 µM. Consider `O=C(NCC(F)(F)F)[C@H]1CCCN1c1nc(-c2c[nH]c3ccc(Cl)cc23)ncc1F` [Compound 157], for which the “inhibition of JAK3 … of 50 μM” value is on record as “did not inhibit”.

Turning to `CC(C)[C@@H](Nc1nc(-c2ccc(O)cc2)ncc1F)C(=O)NCC(F)(F)F` [Compound 142], the Ki fell in the range of 10 to 50 µM. For `CC(C)(Nc1ccnc(-c2cccnc2N)n1)C(=O)NCC(F)(F)F` [Compound 31], the inhibition constant (Ki) fell in the range of 1 to 10 µM. For `CC(C)[C@@H](Nc1nc(-c2ccc3nccnc3c2)ncc1F)C(=O)NCC(F)(F)F` [Compound 168], the inhibition constant Ki is 1 to 10 µM.

For `CC(C)[C@@H](Nc1ccnc(-c2c[nH]c(=O)c(N)c2)n1)C(=O)NCC(F)(F)F` [Compound 135], the inhibition constant (Ki) is 10 to 50 µM. Regarding `Nc1nc(NCC2CCCCC2)nn1-c1ncc(F)c(N2CCC[C@@H]2C(=O)NCC(F)(F)F)n1` [Compound 48], the “inhibition of JAK3 … of 5.0 μM” value is listed as “did not inhibit”. The compound `CC(C)[C@@H](Nc1ccnc(-c2c[nH]c(C(=O)NCC3CC3)c2)n1)C(=O)NCC(F)(F)F` [Compound 112] showed a Ki of 1 to 10 µM. On to `CC(C)NC(=O)c1cc(-c2ncc(F)c(N[C@@H](C(=O)NCC(F)(F)F)C(C)C)n2)c[nH]1` [Compound 105], for which the “inhibition of JAK3 … of 50 μM” value is given as “did not inhibit”.

Consider `CC(C)(Nc1ccnc(-c2ccc3ncccc3c2)n1)C(=O)NCC(F)(F)F` [Compound 75], for which the Ki is not above 1 µM. Regarding `O=C(NCC(F)(F)F)[C@@H]1CCCN1c1nc(-c2ccc(F)nc2)ncc1F` [Compound 25], the “inhibition of JAK3 … of 50 μM” value is “did not inhibit”. Regarding `Nc1cc(-c2ncc(F)c(N3CCC[C@@H]3C(=O)NCC(F)(F)F)n2)c[nH]c1=O` [Compound 138], the “inhibition of JAK3 … of 50 μM” value is “did not inhibit”. `O=C(CNc1nc(-c2cccnc2F)ncc1F)NCC(F)(F)F` [Compound 8] came in with an inhibitory constant (Ki) of 10 to 50 µM. On to `Nc1nc(Nc2cccnc2)nn1-c1ncc(F)c(N2CCC[C@@H]2C(=O)NCC(F)(F)F)n1` [Compound 46], for which the “inhibition of JAK3 … of 5.0 μM” value is “did not inhibit”.

`CNC(=O)c1cc(-c2nccc(N[C@@H](C(=O)NCC(F)(F)F)C(C)C)n2)c[nH]1` [Compound 109] registered an inhibition constant Ki of 1 to 10 µM. In the case of `COc1ccc(Nc2nc(N)n(-c3ncc(F)c(N4CCC[C@@H]4C(=O)NCC(F)(F)F)n3)n2)cc1` [Compound 39], the inhibition constant Ki lay in the range of 1 to 10 µM. With `CC(C)C(Nc1nc(-c2c[nH]c(C(=O)N3CC=CC3)c2)ncc1F)C(=O)NCC(F)(F)F` (stereo not shown) [Compound 108], the Ki is not above 1 µM. On to `COc1ccc(-c2nccc(N[C@@H](C(=O)NCC(F)(F)F)C(C)C)n2)cn1` [Compound 70], for which the “inhibition of JAK3 … of 50 μM” value was “did not inhibit”. `O=C(NCC(F)(F)F)[C@H]1CCCN1c1nc(-c2c[nH]c(C(=O)N3CCCC3)c2)ncc1F` [Compound 119] registered an inhibition constant Ki of 1 to 10 µM. On to `COc1ccc(-c2ncc(F)c(N[C@@H](C(=O)NCC(F)(F)F)C(C)C)n2)cc1` [Compound 145], for which the “inhibition of JAK3 … of 50 μM” value is recorded as “did not inhibit”. `CC(C)NC(=O)c1cc(-c2ncc(F)c(NC(C)(C)C(=O)NCC(F)(F)F)n2)c[nH]1` [Compound 96] returned a Ki of 10 to 50 µM. The compound `O=C(NCC(F)(F)F)[C@H]1CCCN1c1nc(-c2ccc(O)cc2)ncc1F` [Compound 151] showed an inhibition constant Ki of 10 to 50 µM. The compound `COc1ccc(-c2nccc(NC(C)(C)C(=O)NCC(F)(F)F)n2)cn1` [Compound 80] yielded an inhibitory constant (Ki) of 10 to 50 µM.

On to `Nc1nc2ccc(-c3ncc(F)c(N4CCC[C@@H]4C(=O)NCC(F)(F)F)n3)cc2s1` [Compound 90], for which the “inhibition of JAK3 … of 50 μM” value is listed as “did not inhibit”. As to `O=C(NCC(F)(F)F)[C@H]1CCCN1c1nc(-c2cccnc2F)ncc1F` [Compound 21], the “inhibition of JAK3 … of 50 μM” value was “did not inhibit”. With `O=C(NCC(F)(F)F)[C@H]1CCCN1c1nc(-c2cccnc2)ncc1F` [Compound 23], the “inhibition of JAK3 … of 50 μM” value was “did not inhibit”.

For `CC(C)(Nc1nc(-c2c[nH]c(C(=O)N3CCCC3)c2)ncc1F)C(=O)NCC(F)(F)F` [Compound 97], the Ki was not above 1 µM. On to `O=C(CCNc1nc(-c2cccnc2)ncc1F)NCC(F)(F)F` [Compound 15], for which the Ki was 10 to 50 µM. Same read-out and setting: with `CC(C)[C@@H](Nc1ccnc(-c2ccc3nc(N)sc3c2)n1)C(=O)NCC(F)(F)F` [Compound 73] the figure was 1 to 10 µM; with `CC(C)[C@@H](Nc1nc(-c2ccc3ncccc3c2)ncc1F)C(=O)NCC(F)(F)F` [Compound 77], 1 to 10 µM. Consider `C[C@H](Nc1nc(-c2ccnc(Cl)c2)ncc1F)C(=O)NCC(F)(F)F` [Compound 2], for which the inhibition constant Ki was in the range of 10 to 50 µM. With `CC(C)[C@@H](Nc1nc(-c2ccc(=O)[nH]c2)ncc1F)C(=O)NCC(F)(F)F` [Compound 87], the “inhibition of JAK3 … of 50 μM” value is “did not inhibit”. As for `O=C(NCC(F)(F)F)[C@H]1CCCN1c1ccnc(-c2c[nH]c(C(=O)N3CCCC3)c2)n1` [Compound 130], the inhibitory constant (Ki) lay in the range of 1 to 10 µM.

Turning to `C[C@H](Nc1nc(-c2cccnc2N)ncc1F)C(=O)NCC(F)(F)F` [Compound 27], the Ki was 1 to 10 µM. Consider `COc1ccc(Nc2nc(N)n(-c3nccc(N[C@H](C(=O)NCC(F)(F)F)C(C)C)n3)n2)cc1` [Compound 42], for which the inhibition constant Ki was not above 1 µM. For `O=C(NCC(F)(F)F)[C@H]1CCCN1c1ccnc(-c2ccc3c(c2)OCO3)n1` [Compound 59], the Ki was 1 to 10 µM. Regarding `COc1ccc(-c2ncc(F)c(N3CCC[C@@H]3C(=O)NCC(F)(F)F)n2)cn1` [Compound 91], the “inhibition of JAK3 … of 50 μM” value is recorded as “did not inhibit”.

With `CC(C)[C@@H](Nc1ccnc(-c2ccc(O)cc2)n1)C(=O)NCC(F)(F)F` [Compound 167], the Ki lay within 1 to 10 µM. `CC(C)(Nc1nc(-c2c[nH]c(C(=O)NCc3ccccc3)c2)ncc1F)C(=O)NCC(F)(F)F` [Compound 95]: the “inhibition of JAK3 … of 50 μM” value is given as “did not inhibit”.

On to `CC(C)NC(=O)c1cc(-c2nccc(N[C@@H](C(=O)NCC(F)(F)F)C(C)C)n2)c[nH]1` [Compound 111], for which the “inhibition of JAK3 … of 50 μM” value was “did not inhibit”. On to `Nc1nc(Nc2ccccc2Cl)nn1-c1ncc(F)c(N2CCC[C@@H]2C(=O)NCC(F)(F)F)n1` [Compound 41], for which the “inhibition of JAK3 … of 5.0 μM” value was “did not inhibit”. `CC(C)(Nc1ccnc(-c2c[nH]c(C(=O)N3CCCC3)c2)n1)C(=O)NCC(F)(F)F` [Compound 101] showed an inhibition constant (Ki) not above 1 µM. For `Nc1nc(NCC2CCCO2)nn1-c1ncc(F)c(N2CCC[C@@H]2C(=O)NCC(F)(F)F)n1` (stereo partly shown) [Compound 55], the “inhibition of JAK3 … of 5.0 μM” value is on record as “did not inhibit”. Turning to `COc1ccc(-c2nccc(N3CCC[C@@H]3C(=O)NCC(F)(F)F)n2)cc1` [Compound 150], the “inhibition of JAK3 … of 50 μM” value was “did not inhibit”. The compound `CC(=O)Nc1nc2ccc(-c3nccc(N[C@@H](C(=O)NCC(F)(F)F)C(C)C)n3)cc2s1` [Compound 65] yielded a Ki of 1 to 10 µM.

The Ki is the dissociation constant of the complex between target and ligand, obtained from inhibition or displacement. A low value points to higher affinity.
